In general, melting point refers to the temperature of the solid-liquid transition. Take `CC(C)c1nccn1Cc1ccc2c(c1)Nc1nccnc1S2`: the melting point lay in the range of 241 to 242 °C.
The compound `O=C(c1ccccn1)c1nccn1Cc1ccc2c(c1)Nc1nccnc1S2` had a melting point of 191 to 193 °C.
Take `c1cc(-c2cn(Cc3ccc4c(c3)Nc3nccnc3S4)cn2)ccn1`: the melting point was in the range of 157 to 158 °C.
Turning to `CCOC(=O)/C=C/c1nccn1Cc1ccc2c(c1)Nc1nccnc1S2`, the melting point was in the range of 213 to 215 °C.
Next, `CS(=O)(=O)NCCc1cn(Cc2ccc3c(c2)Nc2nccnc2S3)cn1`: 173 to 176 °C.
In the case of `CS(=O)(=O)N=CNc1ccc(-c2cn(Cc3ccc4c(c3)Nc3nccnc3S4)cn2)cc1` it was 159 to 162 °C; in that of `c1cn(CCCc2ccc3c(c2)Nc2nccnc2S3)cn1`, 139 to 141 °C.
For `O=c1c2ccccc2[nH]n1Cc1ccc2c(c1)Nc1nccnc1S2`, the melting point was above 275 °C.
Compound `FC(F)(c1cccnc1)c1ccc2c(c1)Nc1nccnc1S2` displayed a melting point of 183 to 184 °C.
In the case of `O=C(O)CSc1ccc(C(O)c2ccc3c(c2)Nc2nccnc2S3)cn1` (stereo not drawn) it was 65 to 70 °C.
Next, `O=C(O)C1CC2CCC(C1)N2Cc1ccc2c(c1)Nc1nccnc1S2` (stereo not drawn): 158 °C (dec.).
In the case of `CN1CC2CN(Cc3ccc4c(c3)Nc3nccnc3S4)CC(C1)C2CC(=O)O` (stereo not drawn) it was 220 °C (dec.); in that of `CC(C)(O)CC1C2CCCC1CN(Cc1ccc3c(c1)Nc1nccnc1S3)C2` (stereo not drawn), 182 to 185 °C.
`CC(CO)C1C2CCCC1CN(Cc1ccc3c(c1)Nc1nccnc1S3)C2` (stereo not drawn) registered a melting point of 88 to 92 °C.
In turn, `COCc1ccc2c(c1)Nc1nccnc1S2` registered a melting point of 189 to 192 °C.
On to `CS(=O)(=O)NC(=O)Cc1ccc2c(c1)Nc1nccnc1S2`, for which the melting point lay within 236 to 238 °C.
`c1cnc2c(n1)Nc1cc(Cn3cnc4cncnc43)ccc1S2`: the melting point is 264 to 265 °C.
`c1cnc2c(n1)Nc1cc(Cn3cnc4ncncc43)ccc1S2` showed a melting point of 277 to 280 °C.
`CN(C)c1ncnc2c1[nH]c(=O)n2Cc1ccc2c(c1)Nc1nccnc1S2` showed a melting point above 280 °C.
`Cc1nc2ncncc2n1Cc1ccc2c(c1)Nc1nccnc1S2` had a melting point above 275 °C.
`O=C(O)CCCCCCCCCCSc1ncnc2ncn(Cc3ccc4c(c3)Nc3nccnc3S4)c12`: the melting point lay in the range of 166 to 170 °C.
As for `CCOC(=O)CCCCCSc1ncnc2c1ncn2Cc1ccc2c(c1)Nc1nccnc1S2`, the melting point was in the range of 78 to 79 °C.
`C#CC/N=C(\N)Cc1ccc2c(c1)Nc1nccnc1S2.Cl` registered a melting point of 222 to 223 °C.
In the case of `N/C(Cc1ccc2c(c1)Nc1nccnc1S2)=N\S(N)(=O)=O`, the melting point was > 260 °C (dec.).
In the case of `CN(C)S(=O)(=O)NC1CN=C(Cc2ccc3c(c2)Nc2nccnc2S3)NC1` (stereo not drawn) it was 251 to 254 °C; in that of `CC(=O)N1CCN(C(=N)Cc2ccc3c(c2)Nc2nccnc2S3)CC1.Cl`, 268 to 269 °C; in that of `CNC(Cc1ccc2c(c1)Nc1nccnc1S2)=NC#N`, 233 to 234 °C (dec.).
Next, `CCOC(=O)CCCNC(Cc1ccc2c(c1)Nc1nccnc1S2)=NC#N`: 154 to 155 °C; `CC(=NC#N)NCc1ccc2c(c1)Nc1nccnc1S2`: 275 to 277 °C; `N#CN=C(N)NCc1ccc2c(c1)Nc1nccnc1S2`: 246 to 248 °C.
`N/C(=N\[N+](=O)[O-])NCc1ccc2c(c1)Nc1nccnc1S2` displayed a melting point of 226 to 228 °C.
Take `COC(=O)CC1C2CCCC1CN(Cc1ccc3c(c1)Nc1nccnc1S3)C2` (stereo not drawn): the melting point was in the range of 127 to 129 °C.
Next, `OCCCCC1CCN(Cc2ccc3c(c2)Nc2nccnc2S3)CC1`: 132 to 135 °C.
Regarding `O=c1ccn(Cc2ccc3c(c2)Nc2ccncc2S3)cc1`, the melting point was 168 °C (dec.).
In the case of `NC(=O)C1CCN(Cc2ccc3c(c2)Nc2nccnc2O3)CC1` it was 287 to 288 °C; in that of `O=c1ccccn1Cc1ccc2c(c1)Nc1nccnc1S2`, 260 to 261 °C; in that of `O=c1ccn(Cc2ccc3c(c2)Nc2nccnc2S3)cc1`, above 275 °C.
Take `O=C1C=CN(Cc2ccc3c(c2)Nc2nccnc2S3)CC1`: the melting point fell in the range of 233 to 235 °C.
Next, `CS(=O)(=O)/N=C/N1CCN(Cc2ccc3c(c2)Nc2nccnc2S3)CC1`: 212 to 214 °C; `CNS(=O)(=O)N1CCN(Cc2ccc3c(c2)Nc2nccnc2S3)CC1`: 208 to 210 °C.
In turn, `CS(=O)(=O)/N=C(\N)C1CCN(Cc2ccc3c(c2)Nc2nccnc2S3)CC1` showed a melting point of 204 to 209 °C.
In the case of `CNS(=O)(=O)NC1CCN(Cc2ccc3c(c2)Nc2nccnc2O3)CC1` it was 219 to 222 °C.
Compound `O=S(=O)(NC1CCN(Cc2ccc3c(c2)Nc2nccnc2S3)CC1)C(F)(F)F` showed a melting point of 199 to 201 °C.
The compound `O=C1OCCC1=C1CCN(Cc2ccc3c(c2)Nc2nccnc2S3)CC1` showed a melting point of 159 to 162 °C.
In turn, `OCC(O)C1CCN(Cc2ccc3c(c2)Nc2nccnc2S3)CC1` (stereo not drawn) yielded a melting point of 182 to 185 °C.
With `CON=C1CCN(Cc2ccc3c(c2)Nc2nccnc2S3)CC1`, the melting point lay in the range of 142 to 143 °C.
Next, `Nc1c(N2CCN(Cc3ccc4c(c3)Nc3nccnc3S4)CC2)c(=O)c1=O`: 285 to 288 °C (dec.); `OC1CC2CN(Cc3ccc4c(c3)Nc3nccnc3S4)CC2C1` (stereo not drawn): 192 to 195 °C.
`OCCC12CCN(Cc3ccc4c(c3)Nc3nccnc3S4)CC1C2` (stereo not drawn) returned a melting point of 57 to 60 °C.
`c1cnc2c(n1)Nc1cc(CN3CCC3)ccc1S2` gave a melting point of 158 to 161 °C.
In turn, `c1cnc2c(n1)Nc1cc(CN3CCc4sccc4C3)ccc1S2` showed a melting point of 182 to 184 °C.
`CNS(=O)(=O)CCC1CCN(Cc2ccc3c(c2)Nc2nccnc2S3)CC1`: the melting point lay in the range of 195 to 198 °C.
`COCN1c2cc(C(=O)OC)ccc2Sc2nccnc21`: the melting point was in the range of 151 to 152 °C.
`O=C(CN1CCC(C(=O)O)CC1)NCc1ccc2c(c1)Nc1nccnc1S2`: the melting point was 226 to 230 °C (dec.).
Next, `O=C(O)CC1CC(C2CCN(Cc3ccc4c(c3)Nc3nccnc3S4)CC2)C1` (stereo not drawn): 215 to 220 °C; `N#CC(CCC(=O)O)=C1CCN(Cc2ccc3c(c2)Nc2nccnc2S3)CC1`: 114 to 116 °C; `O=C(O)/C=C1/CCCN(Cc2ccc3c(c2)Nc2nccnc2S3)C1`: 216 to 220 °C.
Next, `O=C(O)C1CCN(Cc2ccc3c(c2)Nc2nccnc2O3)CC1`: 242 to 244 °C; `O=C(O)c1ccc(C2CCN(Cc3ccc4c(c3)Nc3nccnc3S4)CC2)cc1`: 265 to 268 °C; `COc1ccc(C2CCN(Cc3ccc4c(c3)Nc3nccnc3S4)CC2)cc1CC(=O)O`: 174 to 176 °C.
The compound `O=C(O)CCC(=O)N1CCN(Cc2ccc3c(c2)Nc2nccnc2S3)CC1` registered a melting point of 240 to 242 °C.
In the case of `O=C(O)C1CN(Cc2ccc3c(c2)Nc2nccnc2S3)C1`, the melting point fell in the range of 181 to 183 °C.
In turn, `CCC1(CC(=O)O)CCN(Cc2ccc3c(c2)Nc2nccnc2S3)CC1` displayed a melting point of 225 to 226 °C.
For `O=C(O)C=C1CC2(CCN(Cc3ccc4c(c3)Nc3nccnc3S4)CC2)C1`, the melting point lay in the range of 238 to 241 °C.
With `O=C([O-])C12CC[N+](Cc3ccc4c(c3)Nc3nccnc3S4)(CC1)CC2`, the melting point fell in the range of 229 to 230 °C.
Next, `O=C(O)C1C2CN(Cc3ccc4c(c3)Nc3nccnc3S4)CC21` (stereo not drawn): above 275 °C.
In the case of `O=C(O)C(F)C1CCN(Cc2ccc3c(c2)Nc2nccnc2S3)CC1` (stereo not drawn), the melting point is 163 °C (dec.).
Compound `COCN1c2cc(CCl)ccc2Sc2nccnc21` had a melting point of 125 to 126 °C.
For `CC1CN(Cc2ccc3c(c2)Nc2nccnc2S3)CC(C)C1CC(=O)O` (stereo not drawn), the melting point was 200 °C (dec.).
In the case of `O=C(O)CC1CCC2(CC1)CN(Cc1ccc3c(c1)Nc1nccnc1S3)C2` it was 145 °C (dec.); in that of `O=C(O)Cc1ccc(OCC2CCN(Cc3ccc4c(c3)Nc3nccnc3S4)CC2)cc1`, 225 to 230 °C; in that of `CC(CCC1CCN(CCc2ccc3c(c2)Nc2nccnc2S3)CC1)C(=O)O` (stereo not drawn), 229 to 230 °C (dec.).
Compound `O=C(O)CSC1CCN(Cc2ccc3c(c2)Nc2nccnc2S3)CC1` showed a melting point of 148 to 152 °C.
In the case of `O=C(O)C=C1C2CCCC1CN(Cc1ccc3c(c1)Nc1nccnc1S3)C2` it was 253 to 255 °C; in that of `CC(C)(CCC1CCN(Cc2ccc3c(c2)Nc2nccnc2S3)CC1)C(=O)O`, 180 to 185 °C; in that of `O=C(O)C1CCN(CCCc2ccc3c(c2)Nc2nccnc2S3)CC1`, 262 to 264 °C.
Consider `CC(CCC1CCN(C(=O)NCc2ccc3c(c2)Nc2nccnc2S3)CC1)C(=O)O` (stereo not drawn), for which the melting point was in the range of 94 to 98 °C.
In turn, `O=C(O)c1ccc(CC2CCN(Cc3ccc4c(c3)Nc3nccnc3S4)CC2)cc1` displayed a melting point of 158 to 161 °C.
In turn, `O=C(O)CSCC1CCN(Cc2ccc3c(c2)Nc2nccnc2S3)CC1` gave a melting point of 110 to 113 °C.
`COCN1c2ccc(OC)cc2Nc2nccnc21` showed a melting point of 244 to 251 °C.
`CN1c2cc(C#N)ccc2Nc2nccnc21`: the melting point was above 275 °C.
Regarding `CCOC(=O)/C=C/c1ccc2c(c1)Nc1nccnc1N2C`, the melting point fell in the range of 190 to 191 °C.
For the compound `OC/C=C/CN1c2ccccc2Nc2nccnc21`, the melting point was in the range of 197 to 199 °C.
On to `CC(=O)NCc1ccc2c(c1)Nc1nccnc1N2C`, for which the melting point fell in the range of 247 to 249 °C.
Next, `CCOC(=O)C#Cc1ccc2c(c1)Nc1nccnc1N2C`: 232 to 235 °C; `Cc1cccc2c1Sc1nccnc1N2`: 165 to 166 °C.
In the case of `c1ccc(NCc2ccc3c(c2)Nc2nccnc2S3)nc1` it was 208 to 212 °C; in that of `c1cnc2c(n1)Nc1cc(CNCC3CCNCC3)ccc1S2`, 173 to 175 °C.
The compound `Cc1cc(NCc2ccc3c(c2)Nc2nccnc2S3)cc(C)n1` yielded a melting point of 230 to 235 °C.
In turn, `CCOC(=O)CSc1ccc(NCc2ccc3c(c2)Nc2nccnc2S3)cn1` displayed a melting point of 118 to 122 °C.

For the origin of these results see US6518423B1, “Benzopiperidine derivatives” (Eisai Co., Ltd., priority 1996, dated 2003).
